# Read-outs that look alike come from different tables or passages of the source.
structure (smiles),measurement,setting,value
"COc1ncc(-c2nc3c(n2C(C)C)[C@H](c2ccc(Cl)cc2)N(c2cc(Cl)cn(C)c2=O)C3=O)c(OC)n1 [HDM201, (S)-5-(5-Chloro-1-methyl-2-oxo-1,2-dihydro-pyridin-3-yl)-6-(4-chloro-phenyl)-2-(2,4-dimethoxy-pyrimidin-5-yl)-1-isopropyl-5,6-dihydro-1H-pyrrolo[3,4-d]imidazol-4-one]","Abdominal Pain, All Grades","1B 120 mg, N=9",1 (11.1) n (%)
same,"Abdominal Pain, Grade 3/4","1B 120 mg, N=9",0 n (%)
same,"Alanine Aminotransferase Increased, All Grades","1B 120 mg, N=9",0 n (%)
same,"Alanine Aminotransferase Increased, Grade 3/4","1B 120 mg, N=9",0 n (%)
same,"Alopecia, All Grades","1B 120 mg, N=9",1 (11.1) n (%)
same,"Alopecia, Grade 3/4","1B 120 mg, N=9",0 n (%)
same,"Amylase Increased, All Grades","1B 120 mg, N=9",0 n (%)
same,"Amylase Increased, Grade 3/4","1B 120 mg, N=9",0 n (%)
same,"Anaemia, All Grades","1B 120 mg, N=9",2 (22.2) n (%)
same,"Anaemia, Grade 3/4","1B 120 mg, N=9",0 n (%)
same,"Asthenia, All Grades","1B 120 mg, N=9",1 (11.1) n (%)
same,"Asthenia, Grade 3/4","1B 120 mg, N=9",0 n (%)
same,"Blood Bilirubin Increased, All Grades","1B 120 mg, N=9",0 n (%)
same,"Blood Bilirubin Increased, Grade 3/4","1B 120 mg, N=9",0 n (%)
same,"Blood Creatine Phosphokinase Increased, All Grades","1B 120 mg, N=9",2 (22.2) n (%)
same,"Blood Creatine Phosphokinase Increased, Grade 3/4","1B 120 mg, N=9",1 (11.1) n (%)
same,"Blood Creatinine Increased, All Grades","1B 120 mg, N=9",1 (11.1) n (%)
same,"Blood Creatinine Increased, Grade 3/4","1B 120 mg, N=9",0 n (%)
same,"Decreased Appetite, All Grades","1B 120 mg, N=9",1 (11.1) n (%)
same,"Decreased Appetite, Grade 3/4","1B 120 mg, N=9",0 n (%)
same,"Dehydration, All Grades","1B 120 mg, N=9",1 (11.1) n (%)
same,"Dehydration, Grade 3/4","1B 120 mg, N=9",0 n (%)
same,"Diarrhoea, All Grades","1B 120 mg, N=9",3 (33.3) n (%)
same,"Diarrhoea, Grade 3/4","1B 120 mg, N=9",0 n (%)
same,"Dry Skin, All Grades","1B 120 mg, N=9",1 (11.1) n (%)
same,"Dry Skin, Grade 3/4","1B 120 mg, N=9",0 n (%)
same,"Dysgeusia, All Grades","1B 120 mg, N=9",1 (11.1) n (%)
same,"Dysgeusia, Grade 3/4","1B 120 mg, N=9",0 n (%)
same,"Eye Pain, All Grades","1B 120 mg, N=9",0 n (%)
same,"Eye Pain, Grade 3/4","1B 120 mg, N=9",0 n (%)
same,"Fatigue, All Grades","1B 120 mg, N=9",1 (11.1) n (%)
same,"Fatigue, Grade 3/4","1B 120 mg, N=9",0 n (%)
same,"Folliculitis, All Grades","1B 120 mg, N=9",0 n (%)
same,"Folliculitis, Grade 3/4","1B 120 mg, N=9",0 n (%)
same,"Gamma-Glutamyltransferase Increased, All Grades","1B 120 mg, N=9",0 n (%)
same,"Gamma-Glutamyltransferase Increased, Grade 3/4","1B 120 mg, N=9",0 n (%)
same,"Headache, All Grades","1B 120 mg, N=9",0 n (%)
same,"Headache, Grade 3/4","1B 120 mg, N=9",0 n (%)
same,"Hyperkalaemia, All Grades","1B 120 mg, N=9",1 (11.1) n (%)
same,"Hyperkalaemia, Grade 3/4","1B 120 mg, N=9",0 n (%)
same,"Hypocalcaemia, All Grades","1B 120 mg, N=9",1 (11.1) n (%)
same,"Hypocalcaemia, Grade 3/4","1B 120 mg, N=9",0 n (%)
same,"Influenza Like Illness, All Grades","1B 120 mg, N=9",0 n (%)
same,"Influenza Like Illness, Grade 3/4","1B 120 mg, N=9",0 n (%)
same,"Lethargy, All Grades","1B 120 mg, N=9",0 n (%)
same,"Lethargy, Grade 3/4","1B 120 mg, N=9",0 n (%)
same,"Leukopenia, All Grades","1B 120 mg, N=9",1 (11.1) n (%)
same,"Leukopenia, Grade 3/4","1B 120 mg, N=9",0 n (%)
same,"Lipase Increased, All Grades","1B 120 mg, N=9",1 (11.1) n (%)
same,"Lipase Increased, Grade 3/4","1B 120 mg, N=9",0 n (%)
same,"Lymphopenia, All Grades","1B 120 mg, N=9",0 n (%)
same,"Lymphopenia, Grade 3/4","1B 120 mg, N=9",0 n (%)
same,"Monocytosis, All Grades","1B 120 mg, N=9",1 (11.1) n (%)
same,"Monocytosis, Grade 3/4","1B 120 mg, N=9",0 n (%)
same,"Musculoskeletal Pain, All Grades","1B 120 mg, N=9",1 (11.1) n (%)
same,"Musculoskeletal Pain, Grade 3/4","1B 120 mg, N=9",0 n (%)
same,"Myalgia, All Grades","1B 120 mg, N=9",1 (11.1) n (%)
same,"Myalgia, Grade 3/4","1B 120 mg, N=9",0 n (%)
same,"Nausea, All Grades","1B 120 mg, N=9",7 (77.8) n (%)
same,"Nausea, Grade 3/4","1B 120 mg, N=9",1 (11.1) n (%)
same,"Neuralgia, All Grades","1B 120 mg, N=9",0 n (%)
same,"Neuralgia, Grade 3/4","1B 120 mg, N=9",0 n (%)
same,"Neutropenia, All Grades","1B 120 mg, N=9",2 (22.2) n (%)
same,"Neutropenia, Grade 3/4","1B 120 mg, N=9",2 (22.2) n (%)
same,"Neutrophil Count Decreased, All Grades","1B 120 mg, N=9",0 n (%)
same,"Neutrophil Count Decreased, Grade 3/4","1B 120 mg, N=9",0 n (%)
same,"Oedema, All Grades","1B 120 mg, N=9",0 n (%)
same,"Oedema, Grade 3/4","1B 120 mg, N=9",0 n (%)
same,"Oral Candidiasis, All Grades","1B 120 mg, N=9",0 n (%)
same,"Oral Candidiasis, Grade 3/4","1B 120 mg, N=9",0 n (%)
same,"Platelet Count Decreased, All Grades","1B 120 mg, N=9",3 (33.3) n (%)
same,"Platelet Count Decreased, Grade 3/4","1B 120 mg, N=9",0 n (%)
same,"Pruritus, All Grades","1B 120 mg, N=9",0 n (%)
same,"Pruritus, Grade 3/4","1B 120 mg, N=9",0 n (%)
same,"Thrombocytopenia, All Grades","1B 120 mg, N=9",1 (11.1) n (%)
same,"Thrombocytopenia, Grade 3/4","1B 120 mg, N=9",0 n (%)
same,"Total, All Grades","1B 120 mg, N=9",9 (100) n (%)
same,"Total, Grade 3/4","1B 120 mg, N=9",4 (44.4) n (%)
same,"Vomiting, All Grades","1B 120 mg, N=9",3 (33.3) n (%)
same,"Vomiting, Grade 3/4","1B 120 mg, N=9",0 n (%)
same,"Weight Decreased, All Grades","1B 120 mg, N=9",1 (11.1) n (%)
same,"Weight Decreased, Grade 3/4","1B 120 mg, N=9",0 n (%)
same,"White Blood Cell Count Decreased, All Grades","1B 120 mg, N=9",2 (22.2) n (%)
same,"White Blood Cell Count Decreased, Grade 3/4","1B 120 mg, N=9",0 n (%)
same,"Abdominal Pain, All Grades","1B 150 mg, N=8",2 (25.0) n (%)
same,"Abdominal Pain, Grade 3/4","1B 150 mg, N=8",0 n (%)
same,"Alanine Aminotransferase Increased, All Grades","1B 150 mg, N=8",1 (12.5) n (%)
same,"Alanine Aminotransferase Increased, Grade 3/4","1B 150 mg, N=8",0 n (%)
same,"Alopecia, All Grades","1B 150 mg, N=8",0 n (%)
same,"Alopecia, Grade 3/4","1B 150 mg, N=8",0 n (%)
same,"Amylase Increased, All Grades","1B 150 mg, N=8",0 n (%)
same,"Amylase Increased, Grade 3/4","1B 150 mg, N=8",0 n (%)
same,"Anaemia, All Grades","1B 150 mg, N=8",2 (25.0) n (%)
same,"Anaemia, Grade 3/4","1B 150 mg, N=8",0 n (%)
same,"Asthenia, All Grades","1B 150 mg, N=8",1 (12.5) n (%)
same,"Asthenia, Grade 3/4","1B 150 mg, N=8",0 n (%)
same,"Blood Bilirubin Increased, All Grades","1B 150 mg, N=8",1 (12.5) n (%)
same,"Blood Bilirubin Increased, Grade 3/4","1B 150 mg, N=8",0 n (%)
same,"Blood Creatine Phosphokinase Increased, All Grades","1B 150 mg, N=8",0 n (%)
same,"Blood Creatine Phosphokinase Increased, Grade 3/4","1B 150 mg, N=8",0 n (%)
same,"Blood Creatinine Increased, All Grades","1B 150 mg, N=8",1 (12.5) n (%)
same,"Blood Creatinine Increased, Grade 3/4","1B 150 mg, N=8",0 n (%)
same,"Decreased Appetite, All Grades","1B 150 mg, N=8",3 (37.5) n (%)

# Source: patent US20210363254A1, “PHARMACEUTICAL COMBINATIONS” (Novartis AG, priority 2018, published 2021)
